One assay concerns the target T1, human PAC1 receptor (Homo sapiens, UniProt P41586).
T1 construct: SHSY-5Y (human neuroblastoma cell line) and RG-2 (rat glioma cell line) cells endogenously express human and rat PAC1 receptors, respectively; endogenous in cells; host or cells: SHSY-5Y human neuroblastoma cells
T1 sequence (P41586 21-468): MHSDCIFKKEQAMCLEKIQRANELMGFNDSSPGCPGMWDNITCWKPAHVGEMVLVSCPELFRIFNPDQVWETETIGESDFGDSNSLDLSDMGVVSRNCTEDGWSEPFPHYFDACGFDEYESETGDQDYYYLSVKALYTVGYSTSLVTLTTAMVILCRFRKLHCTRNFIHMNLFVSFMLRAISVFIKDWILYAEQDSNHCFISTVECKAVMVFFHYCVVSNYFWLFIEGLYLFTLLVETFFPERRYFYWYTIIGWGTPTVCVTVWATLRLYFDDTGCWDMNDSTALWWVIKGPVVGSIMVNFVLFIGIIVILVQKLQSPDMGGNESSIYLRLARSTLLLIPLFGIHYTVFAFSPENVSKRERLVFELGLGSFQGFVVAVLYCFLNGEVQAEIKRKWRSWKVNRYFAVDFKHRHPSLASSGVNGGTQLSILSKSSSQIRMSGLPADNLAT
The assay can be described thus: LANCE Ultra cAMP accumulation antagonist assay in SHSY-5Y cells.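 Further: inhibition of cAMP accumulation evoked by PAC1 agonist at its EC80 in SHSY-5Y cells endogenously expressing receptor, 30 min preincubation then 15 min agonist, TR-FRET readout.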 It is filed as cell-based. Background: In TR-FRET formats the signal depends on donor and acceptor labels being close together.

For another assay, the target named is T2, rat PAC1 receptor (Rattus norvegicus, UniProt P32215).
T2 construct: SHSY-5Y (human neuroblastoma cell line) and RG-2 (rat glioma cell line) cells endogenously express human and rat PAC1 receptors, respectively; endogenous in cells; host or cells: RG-2 rat glioma cells
T2 sequence (P32215 20-523): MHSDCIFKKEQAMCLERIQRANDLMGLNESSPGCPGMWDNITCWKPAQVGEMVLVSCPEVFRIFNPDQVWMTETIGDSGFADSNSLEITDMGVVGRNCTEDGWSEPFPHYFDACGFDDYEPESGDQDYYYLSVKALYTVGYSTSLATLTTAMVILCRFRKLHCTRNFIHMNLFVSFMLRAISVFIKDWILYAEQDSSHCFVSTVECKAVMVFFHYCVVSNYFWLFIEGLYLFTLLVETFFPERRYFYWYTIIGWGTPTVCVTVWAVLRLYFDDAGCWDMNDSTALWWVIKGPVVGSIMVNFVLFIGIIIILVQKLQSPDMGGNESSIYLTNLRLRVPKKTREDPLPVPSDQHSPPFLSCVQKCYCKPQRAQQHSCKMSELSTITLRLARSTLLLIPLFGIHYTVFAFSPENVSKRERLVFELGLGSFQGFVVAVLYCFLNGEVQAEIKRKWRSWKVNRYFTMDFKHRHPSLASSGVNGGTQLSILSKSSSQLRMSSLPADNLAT
Kind of assay: LANCE Ultra cAMP accumulation antagonist assay in RG-2 cells.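 Further: RG-2 rat glioma cells endogenously expressing PAC1, test peptide preincubated 30 min, then PAC1 agonist added at its EC80 for 15 min, cAMP accumulation read by LANCE Ultra.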 The assay is classed as cell-based.

Where a SMILES comes first, the peptide text is derived from it. Bridges are numbered along the chain shown (N, C = ends). [ ]: non-standard residue; d: D form. SeMet = C[Se]CC[C@H](N)C(=O)O

Protocol for rat PAC1 receptor: In order to determine the potency of peptide antagonists at the PAC1 receptor, functional cAMP accumulation assays using LANCE Ultra cAMP assay kit to measure the agonist and antagonist activity of PAC1 peptides were used. SHSY-5Y (human neuroblastoma cell line) and RG-2 (rat glioma cell line) cells endogenously express human and rat PAC1 receptors, respectively. Agonist activity of PAC1 peptides was tested by incubating with SHSY-5Y at 2,000 cells per well or RG-2 at 5,000 cells per well for 15 minutes at room temperature. PAC1 receptor agonist PACAP38 or maxadilan was included as a positive control. The reaction was stopped by adding detection mixture, europium (Eu) chelate-labeled cAMP tracer and cAMP-specific monoclonal antibodies labeled with the ULight™ dye, to all wells followed by a 60-minute incubation at room temperature. The assay plates were then read on an EnVision instrument at an emission wavelength of 665 and 615 nm and data were analyzed using Genedata Screener or GraphPad Prism software. A similar procedure was used in the antagonist assays by using a fixed concentration of PAC1 agonist. The concentrations of agonists were chosen based on their ECK) values at PAC1 receptors in SHSY-5Y or RG-2 cells. SHSY-5Y or RG-2 cells were added into 96-well half-area white plates. Serially diluted PAC1 peptides at ten concentrations were added and incubated for 30 minutes at room temperature. PAC1 agonist at EC80 concentration was then added and further incubated for 15 minutes at room temperature. The reaction was stopped by adding detection mixture to all wells followed by a 60-minute incubation at room temperature. The assay plates were read and analyzed the same way as that of agonist assay. Cells, agonists, and PAC1 peptides were prepared in freshly made assay buffer (F-12, 0.5 mM IBMX, 0.1 or 0.4% BSA (pH 7.4)). Detection mixture was made by mixing a 1/50 dilution of the Eu-cAMP tracer stock solution in cAMP Detection Buffer and a 1/150 dilution of the ULight-anti-cAMP stock solution in cAMP Detection Buffer. Europium (Eu) chelate-labeled cAMP tracer, cAMP-specific monoclonal antibodies labeled with the ULight™ dye, BSA, and detection buffer were provided in LANCE Ultra cAMP Kit from PerkinElmer

On to `CC[C@H](C)[C@H](NC(=O)[C@H](C)NC(=O)[C@H](CCCCN)NC(=O)[C@H](CCCNC(=N)N)NC(=O)[C@H](Cc1ccccc1)NC(=O)[C@H](CCC(N)=O)NC(=O)[C@@H]1CSSC[C@H](N)C(=O)N[C@@H](CC(=O)O)C(=O)N[C@@H](C)C(=O)N[C@@H]([C@@H](C)O)C(=O)N1)C(=O)N[C@@H](CC(=O)O)C(=O)N[C@@H](CC(=O)O)C(=O)N[C@H]1CSSC[C@@H](C(=O)N[C@@H](CC[Se]C)C(=O)N[C@@H](CCCCN)C(=O)N[C@@H](CCC(N)=O)C(=O)N[C@@H](CCCCN)C(=O)N[C@@H](CCCCN)C(=O)N[C@@H](CCCCN)C(=O)N[C@@H](CCC(=O)O)C(=O)N[C@@H](Cc2c[nH]c3ccccc23)C(=O)N[C@@H](CCCCN)C(=O)N[C@@H](C)C(=O)NCC(N)=O)NC(=O)[C@H](C)NC(=O)[C@H](CCCCN)NC(=O)[C@H](Cc2ccccc2)NC(=O)[C@H](C(C)C)NC(=O)[C@H](CO)NC(=O)[C@H](CO)NC(=O)[C@H](Cc2c[nH]cn2)NC(=O)[C@H](Cc2ccc(O)cc2)NC(=O)[C@H](C)NC(=O)[C@H](CCC(N)=O)NC(=O)[C@H](CCCNC(=N)N)NC(=O)[C@H](C)NC1=O` [compound 6] (H-CDATCQFRKAIDDCARQAYHSSVFKAC[SeMet]KQKKKEWKAG-NH2; disulfide 1-5, 14-27), for which the IC50 on human PAC1 receptor and at rat PAC1 receptor was 0.01 to 1 nM each time.
With `CC[C@H](C)[C@H](NC(=O)[C@H](C)NC(=O)[C@H](CCCCN)NC(=O)[C@H](CCCNC(=N)N)NC(=O)[C@H](Cc1ccccc1)NC(=O)[C@H](CCC(N)=O)NC(=O)[C@@H]1CSSC[C@H](NC(=O)CN)C(=O)N[C@@H](CC(=O)O)C(=O)N[C@@H](C)C(=O)N[C@@H]([C@@H](C)O)C(=O)N1)C(=O)N[C@@H](CC(=O)O)C(=O)N[C@@H](CC(=O)O)C(=O)N[C@H]1CSSC[C@@H](C(=O)N[C@@H](CCSC)C(=O)N[C@@H](CCCCN)C(=O)N[C@@H](CCC(N)=O)C(=O)N[C@@H](CCCCN)C(=O)N[C@@H](CCCCN)C(=O)N[C@@H](CCCCN)C(=O)N[C@@H](CCC(=O)O)C(=O)N[C@@H](Cc2c[nH]c3ccccc23)C(=O)N[C@@H](CCCCN)C(=O)N[C@@H](C)C(=O)NCC(=O)N[C@@H](Cc2c[nH]cn2)C(=O)O)NC(=O)[C@H](C)NC(=O)[C@H](CCCCN)NC(=O)[C@H](Cc2ccccc2)NC(=O)[C@H](C(C)C)NC(=O)[C@H](CO)NC(=O)[C@H](CO)NC(=O)[C@H](Cc2c[nH]cn2)NC(=O)[C@H](Cc2c[nH]cn2)NC(=O)[C@H](C)NC(=O)[C@H](CCC(N)=O)NC(=O)[C@H](CCCNC(=N)N)NC(=O)[C@H](C(C)C)NC1=O` [compound 15] (H-GCDATCQFRKAIDDCVRQAHHSSVFKACMKQKKKEWKAGH-OH; disulfide 2-6, 15-28), the IC50 on human PAC1 receptor and on rat PAC1 receptor was 0.01 to 1 nM in each case.
On to `CC[C@H](C)[C@H](NC(=O)[C@H](C)NC(=O)[C@H](CCCCN)NC(=O)[C@H](CCCNC(=N)N)NC(=O)[C@H](Cc1ccccc1)NC(=O)[C@H](CCC(N)=O)NC(=O)[C@@H]1CSSC[C@H](N)C(=O)N[C@@H](CC(=O)O)C(=O)N[C@@H](C)C(=O)N[C@@H]([C@@H](C)O)C(=O)N1)C(=O)N[C@@H](CC(=O)O)C(=O)N[C@@H](CC(=O)O)C(=O)N[C@H]1CSSC[C@@H](C(=O)N[C@@H](CCSC)C(=O)N[C@@H](CCCCN)C(=O)N[C@@H](CCC(N)=O)C(=O)N[C@@H](CCCCN)C(=O)N[C@@H](CCCCN)C(=O)N[C@@H](CCCCN)C(=O)N[C@@H](CCC(=O)O)C(=O)N[C@@H](Cc2c[nH]c3ccccc23)C(=O)N[C@@H](CCCCN)C(=O)N[C@@H](C)C(=O)NCC(N)=O)NC(=O)[C@H](C)NC(=O)[C@H](CCCCN)NC(=O)[C@H](Cc2ccccc2)NC(=O)[C@H](C(C)C)NC(=O)[C@H](CO)NC(=O)[C@H](CO)NC(=O)[C@H](Cc2c[nH]cn2)NC(=O)[C@H](Cc2c[nH]cn2)NC(=O)[C@H](C)NC(=O)[C@H](CCC(N)=O)NC(=O)[C@H](CCCNC(=N)N)NC(=O)[C@H](CC(=O)O)NC1=O` [compound 16] (H-CDATCQFRKAIDDCDRQAHHSSVFKACMKQKKKEWKAG-NH2; disulfide 1-5, 14-27), for which the IC50 against human PAC1 receptor and on rat PAC1 receptor was 0.01 to 1 nM in each case.
In the case of `CC[C@H](C)[C@H](NC(=O)[C@H](C)NC(=O)[C@H](CCCCN)NC(=O)[C@H](CCCNC(=N)N)NC(=O)[C@H](Cc1ccccc1)NC(=O)[C@H](CCC(N)=O)NC(=O)[C@@H]1CSSC[C@H](N)C(=O)N[C@@H](CC(=O)O)C(=O)N[C@@H](C)C(=O)N[C@@H]([C@@H](C)O)C(=O)N1)C(=O)N[C@@H](CC(=O)O)C(=O)N[C@@H](CC(=O)O)C(=O)N[C@H]1CSSC[C@@H](C(=O)N[C@@H](CCSC)C(=O)N[C@@H](CCCCN)C(=O)N[C@@H](CCC(N)=O)C(=O)N[C@@H](CCCCN)C(=O)N[C@@H](CCCCN)C(=O)N[C@@H](CCCCN)C(=O)N[C@@H](CCC(=O)O)C(=O)N[C@@H](Cc2ccccc2)C(=O)N[C@@H](CCCCN)C(=O)N[C@@H](C)C(=O)NCC(=O)N[C@@H](Cc2c[nH]cn2)C(=O)O)NC(=O)[C@H](C)NC(=O)[C@H](CCCCN)NC(=O)[C@H](Cc2ccccc2)NC(=O)[C@H](C(C)C)NC(=O)[C@H](CO)NC(=O)[C@H](CO)NC(=O)[C@H](Cc2c[nH]cn2)NC(=O)[C@H](Cc2c[nH]cn2)NC(=O)[C@H](C)NC(=O)[C@H](CCC(N)=O)NC(=O)[C@H](CCCCN)NC(=O)[C@H](C(C)C)NC1=O` [compound 19] (H-CDATCQFRKAIDDCVKQAHHSSVFKACMKQKKKEFKAGH-OH; disulfide 1-5, 14-27), the IC50 (in general, the concentration needed to halve the response being measured) on human PAC1 receptor lay within 1 to 100 nM; on rat PAC1 receptor it was 0.01 to 1 nM.
In the same order, the values of `CC[C@H](C)[C@H](NC(=O)[C@H](C)NC(=O)[C@H](CCCCN)NC(=O)[C@H](CCCNC(=N)N)NC(=O)[C@H](Cc1ccccc1)NC(=O)[C@H](CCC(N)=O)NC(=O)[C@@H]1CSSC[C@H](N)C(=O)N[C@@H](CC(=O)O)C(=O)N[C@@H](C)C(=O)N[C@@H]([C@@H](C)O)C(=O)N1)C(=O)N[C@@H](CC(=O)O)C(=O)N[C@@H](CC(=O)O)C(=O)N[C@H]1CSSC[C@@H](C(=O)N[C@@H](CCSC)C(=O)N[C@@H](CCCCN)C(=O)N[C@@H](CCC(N)=O)C(=O)N[C@@H](CCCCN)C(=O)N[C@@H](CCCCN)C(=O)N[C@@H](CCCCN)C(=O)N[C@@H](CCC(=O)O)C(=O)N[C@@H](Cc2c[nH]c3ccccc23)C(=O)N[C@@H](CCCCN)C(=O)N[C@@H](C)C(=O)NCC(N)=O)NC(=O)[C@H](C)NC(=O)[C@H](CCCCN)NC(=O)[C@H](Cc2ccccc2)NC(=O)[C@H](CO)NC(=O)[C@H](CO)NC(=O)[C@H](Cc2c[nH]cn2)NC(=O)[C@H](Cc2ccc(O)cc2)NC(=O)[C@H](C)NC(=O)[C@H](CCC(N)=O)NC(=O)[C@H](CCCNC(=N)N)NC(=O)[C@H](C)NC1=O` [compound 20] (H-CDATCQFRKAIDDCARQAYHSSFKACMKQKKKEWKAG-NH2; disulfide 1-5, 14-26) are 0.01 to 1 nM and 0.01 to 1 nM.

(Values after patent US20210395313A1, “PEPTIDE PAC1 ANTAGONISTS” (AMGEN INC., priority 2017, published 2021).)
